One block for each compound: values may come before it.
Columns and labels:
MV4-11 cells = test: Antiproliferative activity, MTT assay; assay type: cell-based, human; conditions: for IC50: 72 h exposure, MTT, mean ± SD, n.a = no activity in concentration of 5, 25, 125, 625 μM; for Selectivity index SI, MV4-11: SI = IC50 BALB/3T3 / IC50 MV4-11
Procedure: Human biphenotypic B myelomonocytic leukemia MV4-11, human colon cancer LoVo cell line and normal mouse fibroblast BALB/3T3 cells were obtained from American Type Culture Collection (Rockville, Maryland, USA), human lung carcinoma A549 cells were obtained from European Collection of Authenticated Cell Cultures (UK). All the cell lines are being maintained at the Hirszfeld Institute of Immunology and Experimental Therapy, PAS, Wroclaw, Poland and were cultured according the procedure described before.
Cell lines were cultured according to the protocol described before. MV4-11 cells were cultured in RPMI 1640 medium (Gibco, UK) with 1.0 mM sodium pyruvate, and 10% fetal bovine serum (FBS) (all from Sigma-Aldrich, Germany). A549, LoVo and LoVo/DX cells were cultured in RPMI 1640 + Opti-MEM (1:1) (both from Gibco, UK) supplemented with 5% fetal bovine serum, 1.0 mM sodium pyruvate (LoVo and LoVo/DX cells) (all from Sigma Aldrich Germany) and 0.1 μg/mL doxorubicin chloride (Accord) (only LoVo/DX cells). BALB/3T3 cells in Dulbecco medium (IIET, Poland) supplemented with 10% fetal bovine serum (Sigma-Aldrich, Germany). All culture media were supplemented with 2 mM L-glutamine (Sigma-Aldrich, Germany), 100 units/mL penicillin, and 100 µg/mL streptomycin (both from Polfa Tarchomin S.A., Poland). All cell lines were grown at 37 °C with 5% CO2 humidified atmosphere.
The solutions of the compounds (50 mM) were prepared by dissolving the substances in DMSO (Sigma Aldrich, Germany). Then the tested compounds were diluted in culture medium to reach the final concentrations of 625, 125, 25 and 5 μM. Before adding of the tested compounds (24 h prior), the cells were plated in 96-well plates (Sarstedt, Germany) at a density of 1 × 10^4 or 0.5 × 10^4 (A549) cells per well. The assay was performed after 72 h of exposure to 625, 125, 25 and 5 μM of the tested agents. The in vitro cytotoxic effect of all agents was examined using the MTT (MV4-11) or SRB assay, described previously. The results were calculated as an IC50 (inhibitory concentration 50%) the concentration of tested agent, which is cytotoxic for 50% of the cancer cells. Each compound in each concentration was tested in triplicate in a single experiment, which was repeated 3–5 times.

Myzus persicae = test: EPG monitoring of aphid probing and feeding (no-choice test); assay type: in vivo; conditions: 8-h EPG; for Mean duration of probing (C + G + E) / Number of probes / Total duration of pathway (C) / Total duration of phloem phase (E) / Total duration of probing (C + G + E): 0.1% solution, n = 12; for Mean duration of probing (C + G + E) / Number of probes / Total duration of pathway (C) / Total duration of phloem phase (E) / Total duration of probing (C + G + E) / Number of probes before first phloem phase / Time from first probe to first phloem phase / Duration of first phloem phase / Total duration of phloem salivation E1 / Total duration of phloem sap ingestion E2 / Number of probes < 3 min: mean ± SE; for Number of probes before first phloem phase / Time from first probe to first phloem phase: activities in non-phloem tissues; for Number of probes before first phloem phase / Time from first probe to first phloem phase / Duration of first phloem phase / Total duration of phloem salivation E1 / Total duration of phloem sap ingestion E2 / Number of probes < 3 min: n = 10-12; for Duration of first phloem phase / Total duration of phloem salivation E1 / Total duration of phloem sap ingestion E2: activities in sieve elements; for Number of probes < 3 min: before first phloem phase; for Proportion of salivation in phloem phase: (duration of E1 / duration of E1 + E2)*100; for Proportion of phloem phase in total probing: index = duration of phloem phase E / duration of probing C + G + E
Procedure: The peach potato aphids Myzus persicae (Sulzer) and the Chinese cabbage Brassica rapa subsp. pekinensis (Lour.) Hanelt were reared in laboratory at 20 °C, 65% r.h., and L16:8D photoperiod. One to seven days old apterous females of M. persicae and 3-week old plants with 4–5 fully developed leaves were used for experiments. M. persicae were obtained from the laboratory culture maintained at the Department of Botany and Ecology for many generations since 2000. All experiments were carried out under the same conditions of temperature, relative humidity, and photoperiod. The bioassays were started at 10–11.a.m. Each compound was dissolved in 70% ethanol to obtain the recommended 0.1% solution[40]. All compounds were applied on the adaxial and abaxial leaf surfaces by immersing a leaf in the ethanolic solution of a given compound for 30 s.[20]. Control leaves of similar size were immersed in 70% ethanol that was used as a solvent for the studied compounds. Experiments were performed 1 h after the compounds application to allow the evaporation of the solvent. Every plant and aphid were used only once.
Aphid probing and the phloem sap uptake by M. persicae was monitored using the technique of electronic registration of aphid probing in plant tissues, known as EPG (= Electrical Penetration Graph), that is frequently employed in insect–plant relationship studies considering insects with sucking-piercing mouthparts[42]–[44]. In this experimental set-up, aphid and plant are connected to electrodes and thus made parts of an electric circuit, which is completed when the aphid inserts its stylets into the plant. Weak voltage is supplied in the circuit, and all changing electric properties are recorded as EPG waveforms that can be correlated with aphid activities and stylet position in plant tissues[45],[46]. The parameters describing aphid behaviour during probing and feeding, such as total time of probing, proportion of phloem patterns E1 and E2, number of probes, etc., are good indicators of plant suitability or interference of probing by chemical or physical factors in individual plant tissues[44]–[46]. In the present study, aphids were attached to a golden wire electrode with conductive silver paint (epgsystems. eu) and starved for 1 h prior to the experiment. Probing behaviour of 12 apterous females/studied compound and control was monitored for 8 h continuously with Giga-4 and Giga-8 DC EPG with 1 GΩ of input resistance recording equipment (EPG Systems, Wageningen, The Netherlands). Each aphid was given access to a freshly prepared plant and each aphid/plant combination was used only once. Various behavioural phases were labelled manually using the Stylet + software (www.epgsystems.eu). The following aphid behaviours were distinguished: no penetration (waveform 'np' – aphid stylets outside the plant), pathway phase—penetration of non-phloem tissues (waveforms 'ABC'), phloem phase (salivation into sieve elements, waveform ‘E1’ and ingestion of phloem sap, waveform ‘E2’), and xylem phase (ingestion of xylem sap, waveform 'G'). Waveform ‘G’ occurred rarely irrespective of the treatment. Therefore, in all calculations the xylem phase was added to the pathway phase and termed as probing in non-phloem tissues. The E1/E2 transition patterns were included in E2. Waveform patterns that were not terminated before the end of the experimental period (8 h) were not excluded from the calculations. The parameters derived from EPG recordings were analyzed according to their frequency and duration in configuration related to activities in peripheral and vascular tissues.
All statistical calculations related to data of the no-choice test were performed using StatSoft, Inc. (2014) STATISTICA (data analysis software system), version 12, www.statsoft.com. […]

IC50 (MV4-11 cells; Homo sapiens, MV4-11): 46.9 ± 11.7 µM
Compound: CC(C)CCCC(C)CCCC(C)CCC[C@]1(C)CC(=O)O[C@@H]1CBr (stereo in doubt) [compound 4, trans-5-Bromomethyl-4-methyl-4-(4′,8′,12′-trimethyltridecyl)dihydrofuran-2-one]
Selectivity index SI, MV4-11 (MV4-11 cells): 7.43
Mean duration of probing (C + G + E) (Myzus persicae): 0.9 ± 0.3 h
Number of probes (Myzus persicae): 20.8 ± 5.2
Total duration of pathway (C) (Myzus persicae): 2.4 ± 0.6 h
Total duration of phloem phase (E) (Myzus persicae): 4.8 ± 0.8 h
Total duration of probing (C + G + E) (Myzus persicae): 7.4 ± 0.3 h
Number of probes before first phloem phase (Myzus persicae): 17.2 ± 4.8
Time from first probe to first phloem phase (Myzus persicae): 2.7 ± 0.8 h
Duration of first phloem phase (Myzus persicae): 3.0 ± 0.9 h
Total duration of phloem salivation E1 (Myzus persicae): 1.8 ± 0.6 min
Total duration of phloem sap ingestion E2 (Myzus persicae): 4.8 ± 0.8 h
Number of probes < 3 min (Myzus persicae): 8.5 ± 3.6
Proportion of salivation in phloem phase (Myzus persicae): 1.5%
Proportion of phloem phase in total probing (Myzus persicae): 62.9%

IC50 (MV4-11 cells; Homo sapiens, MV4-11): 52 ± 13.8 µM
Compound: CC(C)CCCC(C)CCCC(C)CCC[C@]1(C)CC(=O)O[C@H]1CBr (stereo in doubt) [compound 5, cis-5-Bromomethyl-4-methyl-4-(4′,8′,12′-trimethyltridecyl)dihydrofuran-2-one]
Selectivity index SI, MV4-11 (MV4-11 cells): 8.15
Mean duration of probing (C + G + E) (Myzus persicae): 0.5 ± 0.1 h
Number of probes (Myzus persicae): 31.6 ± 9.1
Total duration of pathway (C) (Myzus persicae): 2.8 ± 0.5 h
Total duration of phloem phase (E) (Myzus persicae): 4.0 ± 0.7 h
Total duration of probing (C + G + E) (Myzus persicae): 7.1 ± 0.4 h
Number of probes before first phloem phase (Myzus persicae): 10.3 ± 3.1
Time from first probe to first phloem phase (Myzus persicae): 1.4 ± 0.3 h
Duration of first phloem phase (Myzus persicae): 2.2 ± 0.8 h
Total duration of phloem salivation E1 (Myzus persicae): 2.4 ± 0.6 min
Total duration of phloem sap ingestion E2 (Myzus persicae): 4.0 ± 0.7 h
Number of probes < 3 min (Myzus persicae): 7.1 ± 2.8
Proportion of salivation in phloem phase (Myzus persicae): 3.8%
Proportion of phloem phase in total probing (Myzus persicae): 54.0%

IC50 (MV4-11 cells; Homo sapiens, MV4-11): 110 ± 41.6 µM
Compound: CC(C)CCCC(C)CCCC(C)CCC[C@]1(C)CC(=O)O[C@H]1CCl (stereo in doubt) [compound 7, cis-5-chloromethyl-4-methyl-4-(4′,8′,12′-trimethyltridecyl)dihydrofuran-2-one]
Mean duration of probing (C + G + E) (Myzus persicae): 1.0 ± 0.4 h
Number of probes (Myzus persicae): 18.7 ± 4.6
Total duration of pathway (C) (Myzus persicae): 2.5 ± 0.5 h
Total duration of phloem phase (E) (Myzus persicae): 4.4 ± 0.8 h
Total duration of probing (C + G + E) (Myzus persicae): 7.1 ± 0.5 h
Number of probes before first phloem phase (Myzus persicae): 15.6 ± 4.7
Time from first probe to first phloem phase (Myzus persicae): 3.3 ± 0.8 h
Duration of first phloem phase (Myzus persicae): 3.6 ± 0.8 h
Total duration of phloem salivation E1 (Myzus persicae): 1.2 ± 0.6 min
Total duration of phloem sap ingestion E2 (Myzus persicae): 4.4 ± 0.8 h
Number of probes < 3 min (Myzus persicae): 9.6 ± 3.6
Proportion of salivation in phloem phase (Myzus persicae): 0.4%
Proportion of phloem phase in total probing (Myzus persicae): 56.9%

Further lines, the compound ahead of its results:

Compound: 3,7,11,15-tetramethylhexadec-2-en-1-ol [Phytol (1), reference compound]
IC50 (MV4-11 cells): 51.4 ± 3.6 µM
Selectivity index SI, MV4-11 (MV4-11 cells): 1.25
Mean duration of probing (C + G + E) (Myzus persicae): 0.3 ± 0.1 h
Number of probes (Myzus persicae): 41.4 ± 7.6
Total duration of pathway (C) (Myzus persicae): 4.2 ± 0.4 h
Total duration of phloem phase (E) (Myzus persicae): 2.8 ± 0.5 h
Total duration of probing (C + G + E) (Myzus persicae): 7.1 ± 0.2 h
Number of probes before first phloem phase (Myzus persicae; listed as phytol): 27.0 (± 5.3)
Number of probes before first phloem phase (Myzus persicae; listed as phytol (1)): 27.0 ± 5.3
Time from first probe to first phloem phase (Myzus persicae; listed as phytol (1)): 2.7 ± 0.6 h
Duration of first phloem phase (Myzus persicae): 1.6 ± 0.5 h
Total duration of phloem salivation E1 (Myzus persicae): 8.4 ± 2.4 min
Total duration of phloem sap ingestion E2 (Myzus persicae): 2.7 ± 0.5 h
Number of probes < 3 min (Myzus persicae): 18.8 ± 3.6
Proportion of salivation in phloem phase (Myzus persicae): 18.3%
Proportion of phloem phase in total probing (Myzus persicae): 38.4%

Compound: CC(C)CCCC(C)CCCC(C)CCC[C@]1(C)CC(=O)O[C@@H]1CCl (stereo in doubt) [compound 6, trans-5-Chloromethyl-4-methyl-4-(4′,8′,12′-trimethyltridecyl)dihydrofuran-2-one]
IC50 (MV4-11 cells; Homo sapiens, MV4-11): 48.3 ± 19.6 µM
Selectivity index SI, MV4-11 (MV4-11 cells): 5.65
Mean duration of probing (C + G + E) (Myzus persicae): 1.2 ± 0.7 h
Number of probes (Myzus persicae): 42.9 ± 10.4
Total duration of pathway (C) (Myzus persicae): 3.0 ± 0.5 h
Total duration of phloem phase (E) (Myzus persicae): 3.5 ± 0.8 h
Total duration of probing (C + G + E) (Myzus persicae): 6.6 ± 0.5 h
Number of probes before first phloem phase (Myzus persicae): 24.9 ± 9.0
Time from first probe to first phloem phase (Myzus persicae): 3.0 ± 0.8 h
Duration of first phloem phase (Myzus persicae): 2.0 ± 0.8 h
Total duration of phloem salivation E1 (Myzus persicae): 3.0 ± 1.2 min
Total duration of phloem sap ingestion E2 (Myzus persicae): 3.5 ± 0.8 h
Number of probes < 3 min (Myzus persicae): 20.3 ± 7.9
Proportion of salivation in phloem phase (Myzus persicae): 9.7%
Proportion of phloem phase in total probing (Myzus persicae): 46.7%

Compound: C=CC(C)(CCCC(C)CCCC(C)CCCC(C)C)CC(=O)O (centres unmarked) [compound 3, 3,7,11,15-tetramethyl-3-vinylhexadecanoic acid]
Selectivity index SI, MV4-11 (MV4-11 cells): 3.69
Mean duration of probing (C + G + E) (Myzus persicae): 1.6 ± 0.7 h
Number of probes (Myzus persicae): 25.3 ± 6.7
Total duration of pathway (C) (Myzus persicae): 2.9 ± 0.5 h
Total duration of phloem phase (E) (Myzus persicae): 4.1 ± 0.8 h
Total duration of probing (C + G + E) (Myzus persicae): 7.2 ± 0.2 h
Number of probes before first phloem phase (Myzus persicae): 15.7 ± 5.9
Time from first probe to first phloem phase (Myzus persicae): 2.0 ± 0.5 h
Duration of first phloem phase (Myzus persicae): 3.3 ± 0.9 h
Total duration of phloem salivation E1 (Myzus persicae): 9.0 ± 6.0 min
Total duration of phloem sap ingestion E2 (Myzus persicae): 3.9 ± 0.8 h
Number of probes < 3 min (Myzus persicae): 10.9 ± 4.4
Proportion of salivation in phloem phase (Myzus persicae): 8.4%
Proportion of phloem phase in total probing (Myzus persicae): 52.6%
